Patent US20250338842A1, “NOVEL MIXTURES FOR CROP PROTECTION” (Adama Agan LTD., priority 2023, published 2025)

Columns and labels:
Format in all cases: in vivo
[1] = test system: AMAPA (Amaranthus palmeri); assay: Pot trial Dimethenamid-P+Pethoxamid+Mesotrione, first and second trial, post-emergence
From the text: (§1) A synergistic effect exists whenever the action of an active ingredient combination is greater than the sum of the actions of the individual components. In the field of agriculture, it is often understood that the term “synergy” is as defined by Colby S. R. in an article entitled “Calculation of the synergistic and antagonistic responses of herbicide combinations” published in the journal Weeds, 1967, 15, p. 20-22. The action expected for a given combination of two active components can be calculated according to Colby as follows: […]
(§2) in which E represents the expected effect, e.g. percentage of pest control, for the combination of the active ingredients at defined doses (for example equal to x and y respectively), A is the effect, e.g. percentage of pest control, observed for the first compound or mixture of compounds at a defined dose (equal to x), B is the effect, e.g. percentage of pest control, observed for the second compound or group of compounds at a defined dose (equal to y).
(§3) Here, efficacy or percent inhibition is determined in %. 0% means efficacy that corresponds to the Control, i.e., as if no treatment had been applied. A percent inhibition of 100% means that complete control is observed. When the percent control observed for the combination (E0) is greater than E, there is a synergistic effect. […]

[2] = test system: AMAPA (Amaranthus palmeri); assay: Pot trial Dimethenamid-P+Pethoxamid+Mesotrione, third trial, pre-emergence; conditions: g a.i./ha: Petoxamid 360, MST 40, DMTP 200
From the text: as §1, §2, §3

SETVI (Setaria viridis) [3] = assay: Pot trial Dimethenamid-P+Thiencarbazone+Pethoxamid, post-emergence
From the text: as §1, §2
(§4) Here, efficacy or percent inhibition is determined in %. 0% means efficacy that corresponds to the Control, i.e., as if no treatment had been applied. A percent inhibition of 100% means that complete control is observed. When the percent control observed for the combination (E0) is greater than E, there is a synergistic effect. When the percent control observed for the combination (E0) is equal to E, there is an additive effect and wherein the percent control observed for the combination (E0) is lower than E, there is an antagonistic effect.
(§5) First trial: Tank mixes were prepared by combining the formulation with water in order to achieve the desired concentration of each active ingredient, as outlined in Table 19. For this study, individual pots were utilized for sowing the weeds, with each pot containing one weed species, in this case SOLNI (Solanum nigrum) or SETVI (Setaria viridis). Treatments were then applied to each pot at the post-emergence stage of the weeds, ensuring consistent application timing across all treatments. Subsequently, a comprehensive assessment was conducted seven days after application (7DAA) to evaluate the efficacy of each treatment on SOLNI or SETVI.
as §5, with “Second” for “First”, “21.” for “19.”, “Subsequently, a comprehensive assessment was conducted seven days after application (7DAA) to evaluate the efficacy of each treatment on SOLNI or SETVI.” left out

SOLNI (Solanum nigrum) [4] = assay: as above
From the text: as §1, §2, §4, §5
as §5, with “Second” for “First”, “21.” for “19.”, “Subsequently, a comprehensive assessment was conducted seven days after application (7DAA) to evaluate the efficacy of each treatment on SOLNI or SETVI.” left out

SOLNI (Solanum nigrum) [5] = assay: Pot trial Dimethenamid-P+Tembotrione+Pethoxamid (Example 6), post-emergence
From the text: as §1, §2, §3

SETVI (Setaria viridis) [6] = assay: Pot trial Dimethenamid-P+Tembotrione+Pethoxamid (Example 7), post-emergence
From the text: as §1, §2, §3

[7] = test system: ECHCG (Echinochloa crus-galli); assay: Pot trial Flufenacet+Dimethenamid-p+Thiencarbazone, first trial, pre-emergence; conditions: g a.i./ha: Flufenacet 12.2 (12.5 in mix), TCM 3, DMTP 50
From the text: as §1, §2, §3

[8] = test system: SETVE (Setaria verticillate); assay: as above; conditions: g a.i./ha: Flufenacet 12.2 (12.5 in mix), TCM 3, DMTP 50
From the text: as §1, §2, §3

[9] = test system: ECHCG (Echinochloa crus-galli); assay: Pot trial Flufenacet+Dimethenamid-p+Thiencarbazone, second trial, post-emergence; conditions: post-emergence (2-3 leaves), g a.i./ha: Flufenacet 12.2 (12.5 in mix), TCM 3, DMTP 50
From the text: as §1, §2, §3

[10] = test system: AMARE (Amaranthus retroflexus); assay: Pot trial Flufenacet+Dimethenamid-p+Thiencarbazone, third trial, post-emergence; conditions: post-emergence (2-3 leaves), g a.i./ha: Flufenacet 75, TCM 18, DMTP 302
From the text: as §1, §2, §3

[11] = test system: CHEAL (Chenopodium album); assay: as above; conditions: post-emergence (2-3 leaves), g a.i./ha: Flufenacet 75, TCM 18, DMTP 302
From the text: as §1, §2, §3

[12] = test system: AMARE (Amaranthus retroflexus); assay: Pot trial Flufenacet+Dimethenamid-p+Mesotrione, post-emergence; conditions: post-emergence (2-3 leaves), g a.i./ha: Flufenacet 75, MST 60, DMTP 302
From the text: as §1, §2, §3

[13] = test system: ECHCG (Echinochloa crus-galli); assay: as above; conditions: post-emergence (2-3 leaves), g a.i./ha: Flufenacet 75, MST 60, DMTP 302
From the text: as §1, §2, §3

[14] = test system: AMAPA (Amaranthus palmeri); assay: Pot trial Dimethenamid-P+S-Metolachlor+Mesotrione, post-emergence
From the text: as §1, §2, §3

[15] = first trial, g a.i./ha: PTX 360, TCM/DMTP 159 (one cell)
[16] = second trial, g a.i./ha: PTX 720, TCM/DMTP 318 (one cell)
[17] = second trial, g a.i./ha: PTX 720, TMB 63, DMTP 604.8

## CCOCCN(C(=O)CCl)C(=C(C)C)c1ccccc1 [Pethoxamid]
[1]; first trial, g a.i./ha: Petoxamid 720, MST 60, DMTP 300
  efficacy 21DAA AMAPA %: 6.25%
[1]; second trial, g a.i./ha: Petoxamid 120, MST 20, DMTP 100
  efficacy 21DAA AMAPA %: 0%
[2]
  efficacy 21DAA AMAPA %: 52.50%
SETVI (Setaria viridis) [3]; [15]
  efficacy 7DAA SETVI %: 2.50%
SETVI (Setaria viridis) [3]; [16]
  efficacy 7DAA SETVI %: 0.00%
SOLNI (Solanum nigrum) [4]; [15]
  efficacy 7DAA SOLNI %: 0.00%
SOLNI (Solanum nigrum) [4]; [16]
  efficacy 7DAA SOLNI %: 1.70%
SOLNI (Solanum nigrum) [5]; first trial, g a.i./ha: PTX 120, TMB 10.5, DMTP 100
  efficacy 7DAA SOLNI %: 0.00%
SOLNI (Solanum nigrum) [5]; [17]
  efficacy 7DAA SOLNI %: 1.70%
SETVI (Setaria viridis) [6]; first trial, g a.i./ha: PTX 360, TMB 10.5, DMTP 100.8
  efficacy 7DAA SETVI %: 2.50%
SETVI (Setaria viridis) [6]; [17]
  efficacy 7DAA SETVI %: 0.00%

## CC(C)N(C(=O)COc1nnc(C(F)(F)F)s1)c1ccc(F)cc1 [Flufenacet]
[7]
  efficacy 8DAA ECHCG %: 0%
[8]
  efficacy 8DAA SETVE %: 0%
[9]
  efficacy 8DAA ECHCG %: 0%
[10]
  efficacy 8DAA AMARE %: 0%
[11]
  efficacy 8DAA CHEAL %: 0%
[12]
  efficacy 8DAA AMARE %: 0%
[13]
  efficacy 8DAA ECHCG %: 0%

## CCc1cccc(C)c1N(C(=O)CCl)[C@@H](C)COC [S-metolachlor]
[14]; first trial, g a.i./ha: S-MOc 144, MST 20, DMTP 100
  efficacy 18DAA AMAPA %: 0.00%
[14]; second trial, g a.i./ha: S-MOc 288, MST 40, DMTP 200
  efficacy 18DAA AMAPA %: 0.00%
